No end group written: not given here.
Key:
[1] = test system: Neuro-2a cells; experiment: Internalization (take-up) of αSyn-Alexa488 fibrils by Neuro-2a cells, 96-well plate assay with Trypan blue quenching; assay type: cell-based, Murine; conditions: Trypan blue quench; for effect of endocytosis inhibitors on αSyn fibrils take-up by Neuro-2a cells: cells exposed 1 hour to chlorpromazine 0–10 μg/ml or EIPA 0–50 μM before αSyn-Alexa488 fibrils 0.5 μM, 4 hours, 5 wells
Experimental: The uptake of Alexa488-labeled αSyn fibrils (0.5 μM equivalent monomer concentration) pre-incubated or not for 30 min at 37°C in DMEM with the ligands (Hsc70, peptides or Surfen) at different concentrations to Neuro-2A cells was also assessed using a 96-well plate assay. The cells cultured on 96-wells plates were incubated with the fibrils, preincubated or not with the ligands for 30 min at 37°C in DMEM, in 5 independent wells. After 4 hours the media was removed and Hoechst (Sigma-Aldrich) diluted at 0.2 μg/ml in serum-free, phenol red-free DMEM was added for 30 min. The cells were washed twice with serum-free, phenol red-free DMEM and 0.1% Trypan Blue (Sigma-Aldrich) was added to quench the fluorescence of plasma membrane-bound Alexa488-labeled αSyn fibrils. For each wells Alexa488 and Hoechst fluorescences were recorded on a Clariostar microplate reader (BMG LABTECH GmbH, Germany).
To assess to role of endocytosis in αSyn fibrils internalization, Neuro-2a cells cultured on 96-wells plates were first incubated with increasing concentrations of chlorpromazine or l’5-N-ethyl-isopropyl-amiloride (EIPA). After 1 hour Alexa488-labeled αSyn fibrils (0.5 μM equivalent monomer concentration) was added. The experiment was then performed as above.

[2] = molecular target: T1, αSyn fibrils (Homo sapiens, UniProt P37840); experiment: Binding of peptides and Surfen to preformed αSyn fibrils, sedimentation and reversed phase chromatography; conditions: αSyn fibrils 100 μM; for Bound peptides / Bound peptides (%) / binding to αSyn fibrils (in words): ligand 200 μM, 1h RT, PBS; for Bound peptides / Bound peptides (%): pellet 20,000g, C18 reversed phase chromatography, absorbance 215 nm (peptides) or 260 nm (Surfen); for binding to αSyn fibrils (in words) / Kd: sedimentation, reversed phase chromatography; for Kd: peptide 0–200 μM
T1 construct: made in house
Experimental: Hsc70-derived peptides, the […] peptide or the Surfen molecule (0 or 200 μM) were incubated with or without αSyn fibrils (100 μM) for 1h at RT in PBS. The samples were centrifuged for 30 min in a […] tabletop centrifuge (Eppendorf) at 20,000g and 20°C. The pellets were first washed by 100 μL of 0.1% TFA and then dissolved for 30 min in 30 μL of pure TFA. After TFA evaporation, the samples were resuspended in 0.1% TFA and stored at -20°C. The composition of each sample was assessed by phase reverse chromatography on a C18 column (Jupiter C18 300A from Phenomenex, Torrance, CA, USA). The solvant composition was 0.1% TFA for solvent A and 80% acetonitrile, 0.09% TFA for solvent B, and the flow was set at 200 μl/min. The column was equilibrated in 5% B. The peptides were eluted by a gradient from 5% to 80% of solvent B. The amount of αSyn-associated ligand present in each sample was determined by comparing their respective absorbance at 215 nm (peptides) or 260 nm (Surfen) to the absorbance of a known amount of the same ligand. For KD measurements the same experiment was performed using a range of peptide concentrations (0-200 μM).

[3] = Secondary structure content by far-UV circular dichroism; assay type: physicochemical; conditions: far-UV CD, 20°C, deconvoluted with Dichroweb
Experimental: Far-UV CD spectra were recorded at 20°C using a JASCO J-810 dichrograph equipped with a thermostated cell holder using a 0.01-cm path length quartz cuvette. Each spectrum was the average of 10 acquisitions recorded in the 260–195 nm range with 0.5-nm steps, a bandwidth of 2 nm, and at a speed of 50 nm/min. All spectra were buffer corrected. The spectra were deconvoluted with the Dichroweb software.

[4] = test system: monomeric αSyn; experiment: Monomeric αSyn assembly into fibrils monitored by Thioflavin T binding; assay type: biochemical, human; conditions: soluble αSyn 50 μM, peptide 50 μM (equimolar), PBS, 37°C, 600 rpm, 4 independent experiments
Experimental: αSyn (50 μM monomer concentration) was incubated in the absence or in the presence of peptides (50 μM) in PBS at 37°C under continuous shaking in an Eppendorf Thermomixer set at 600 rpm. Aliquots (10 μL) were withdrawn at different time intervals from the assembly reaction and mixed to a Thioflavin T solution (10 μM; 400 μL). Thioflavin T fluorescence was recorded with a Cary Eclipse spectrofluorimeter (Varian Medical Systems Inc.) using excitation and emission wavelengths set at 440 and 480 nm, respectively. The nature of the fibrils obtained at the end of the aggregation reaction was assessed by electron microscopy as described above. The proportion of αSyn assembled into fibrils was assessed by ultracentifugation in a TL100 tabletop centrifuge (Beckman) at 50,000g and 20°C for 30 min and analyse of the supernatant and pellet fractions by SDS-PAGE. Following Coomassie staining / destaining the gels were visualized using a ChemiDocTM MP (BioRad). Images were processed and quantified using Image Lab.

[5] = molecular target: T1, αSyn fibrils; experiment: Filter trap (cellulose acetate filter retardation) assay of ATTO488-labelled Hsc70 and subdomains binding to αSyn fibrils; conditions: labelled:unlabelled 1:50, 0–2 μM (domains 0–5 μM), αSyn fibrils 1 μM, PBS, 1h RT, fluorescence, filtered in triplicate, 2 to 3 independent experiments, read-out: KD of ATTO488-labelled polypeptides for αSyn fibrils
Experimental: The KD for Hsc70, SBD, SBDβ and SBD-lid interaction with αSyn fibrils were measured as follow. Hsc70 and its subdomains were first labeled by addition of the aminoreactive fluorescent dye ATTO488 (Invitrogen, Carlsbad, CA, USA) using a protein:dye molar ratio of 1:5. The reaction was stopped by adding Tris-HCl pH 7.5 (20 mM final concentration). The unreacted fluorophore was removed by NAP5 desalting column. Under these conditions the majority of primary amines unaffected by the labelling as 0.05 to 0.08 dye molecules were incorporated on average within Hsc70 or its subdomains, as assessed by absorbance spectroscopy. Binding of ATTO488-labeled polypeptides to fibrillar αSyn was then followed by a filter retardation assay where fibrils and associated proteins are retained on a membrane. The different ATTO488-labeled polypeptides were diluted with their unlabeled counterpart (labeled:unlabeled polypeptides ratio of 1:50) at different final concentrations (0–2 μM) and incubated with or without αSyn fibrils (1 μM) in PBS for 1h at RT. 200 μl of each sample were filtered in triplicate through cellulose acetate membranes (0.2 μm pore size, Millipore Corp., Bedford, MA) using a 48-slot slot-blot filtration apparatus (GE Healthcare). The amount of labeled polypeptide retained on the membrane was visualized using a ChemiDocTM MP (BioRad). Images were processed and quantified using Image Lab.

[6] = test system: Neuro-2a cells; experiment: Binding of αSyn-Alexa488 fibrils to the plasma membrane of Neuro-2a cells; assay type: cell-based, Murine; conditions: αSyn-Alexa488 fibrils 1 μM pre-incubated with ligand (0–10 μM) in DMEM 30 min 37°C; cells exposed 30 min; % cells with at least 1 fluorescent foci
Experimental: Alexa488-labeled αSyn fibrils (1 μM equivalent monomer concentration) were first incubated for 30 min at 37°C in DMEM without or with the ligands (Hsc70 or the NKApep peptide) at different concentrations. Neuro-2a cells cultured on ibidi-μ-Dishes (ibidi, Martinsried, Germany) were then incubated for 30 min with this mix. Then, the cells were washed and immediately imaged in serum-free, phenol red-free DMEM on a Zeiss Axio Observer Z1 epifluorescence microscope equipped with an Incubator XLmulti S2 RED LS (Carl Zeiss) and an Orca-R2 camera (Hamamatsu) at a 20x magnification. The percentage of cells with bound Alexa488 foci was estimated by randomly counting at least 500 cells in 10–15 fields and the experiments were reproduced independently 3 times. For each field the number of foci was automatically assessed using the software Fiji and an in-house built plugin.

[7] = test system: fibrillar αSyn; experiment: Sedimentation assay of Hsc70 with fibrillar αSyn, SDS-PAGE of pellet and supernatant; assay type: binding, human; conditions: Hsc70 10 μM, fibrillar αSyn 100 μM, 1h RT, PBS, 50,000g 30 min
Experimental: For binding assay, αSyn fibrils (100 μM) alone, Hsc70 alone (10 μM) or αSyn fibrils and Hsc70 (100 and 10 μM, respectively) were incubated for 1h at RT in PBS. Samples were spun for 30 min at 50,000g and 20°C in a TL100 tabletop ultracentrifuge (Beckman) and the proportion of Hsc70 present in the pellet vs the supernatant was analysed by SDS-PAGE.

[8] = test system: fibrillar αSyn; conditions: sedimentation assay; read-out: dissociation constant of Hsc70 for fibrillar αSyn; cited from earlier work
Experimental: We previously brought evidence for Hsc70 interaction with fibrillar αSyn using a sedimentation assay. The dissociation constant we measured was 0.1 μM. Here we confirmed the interaction between Hsc70 and fibrillar αSyn using the same sedimentation assay followed by quantitative analysis of the proteins in the pellet and the supernatant fractions by SDS-PAGE (Fig 1A). […] To determine the affinity of Hsc70 for fibrillar αSyn we incubated preform ...

Compound	Bound peptides [2] [µM]	Bound peptides (%) [2] [%]	binding to αSyn fibrils (in words) [2]	Secondary structure composition other [3] [%]	Secondary structure composition α-helix [3] [%]	Secondary structure composition β-strand [3] [%]	other results
CCN(c1nc(N)c(C(=O)N=C(N)N)nc1Cl)C(C)C [EIPA, l’5-N-ethyl-isopropyl-amiloride]							effect of endocytosis inhibitors on αSyn fibrils take-up by Neuro-2a cells [1]: inhibited in a dose-dependent manner
Cc1cc(N)c2cc(NC(=O)Nc3ccc4nc(C)cc(N)c4c3)ccc2n1 [Surfen, reference compound]	176	88	found to bind to αSyn fibrils				effect on αSyn fibrils take-up by Neuro-2a cells ([1]; ligand 2 or 10 μM with Alexa488-labeled αSyn fibrils 1 μM in DMEM 30 min 37°C, cells exposed 2 hours, 3 independent experiments): affected, in a dose-dependent way, their take-up
CN(C)CCCN1c2ccccc2Sc2ccc(Cl)cc21 [chlorpromazine]							effect of endocytosis inhibitors on αSyn fibrils take-up by Neuro-2a cells [1]: inhibited in a dose-dependent manner
FTTYSDNQPGV [Hsc-5]	2.8	1.4	did not bind	85	0	15	
GILNVSAVDKSTGKENKITITN [Hsc-10]	72	36	did bind	41	46	13	effect on αSyn assembly into fibrils [4]: accelerated aggregation; Kd [2]: > 100000 nM
GKFELTGIPPAPRGVPQIEVT [Hsc-8]	1.6	0.8	did not bind	69	7	24	
Hsc70-ATTO488: Hsc70 labeled with the aminoreactive fluorescent dye ATTO488							Kd [5]: 490 ± 20 nM
Hsc70: molecular chaperone Hsc70, recombinant His6-tagged, full-length							effect on αSyn fibrils binding to Neuro-2a cells [6]: affects αSyn fibrils binding to Neuro-2a cells in a dose-dependent manner; Hsc70 co-sedimentation with pre-formed αSyn fibrils [7]: pulled into the pellet; Kd [8]: 100 nM; effect on αSyn fibrils take-up by Neuro-2a cells ([1]; αSyn-Alexa488 fibrils 0.5 μM pre-incubated with ligand 0–10 μM in DMEM 30 min 37°C, cells exposed 4 hours, plate reader): significantly affected their take-up
LSKEDIERMVQEAEKY [Hsc-1]	1.2	0.6	did not bind	48	52	0	
LTGIPPAPRGVPQIE [Hsc-7]	1.2	0.6	did not bind	73	10	17	
NMKATVEDEKLQGKINDEDKQKIL [Hsc-3]	1.2	0.6	did not bind	84	9	7	
TKQTQTFTTYSDNQPGVLIQVYE [Hsc-6]	68	34	did bind	80	0	20	effect on αSyn assembly into fibrils [4]: significantly slowed down αSyn assembly into fibrils; Kd [2]: > 100000 nM
VEDEKLQGKINDED [Hsc-2]	1.0	0.5	did not bind	81	6	13	

Reference: paper PMC7425896, “Polypeptides derived from α-Synuclein binding partners to prevent α-Synuclein fibrils interaction with and take-up by cells” (PLoS ONE, 2020)
